Assay results from patent US20240116875A1, “RATIONAL DESIGN, OPTIMIZATION, AND BIOLOGICAL EVALUATION OF NOVEL MEK4 INHIBITORS AGAINST PANCREATIC ADENOCARCINOMA” (NORTHWESTERN UNIVERSITY, priority 2022, published 2024).
“Also recorded” adds a separate entry of the source. Like-named read-outs stand apart in the source and are kept apart here.

Key:
[1] = test system: phospho-p42/44 MAPK in MiaPaCa2 cells; experiment: p42/44 MAPK phosphorylation, western blotting, MiaPaCa2; format: cell-based, human; conditions: MiaPaCa2, MEK4 inhibitor 10 μM, 5 hours
Description: (§1) The effects of different treatments on phospho-p42/44 MAPK and total p42/44 MAPK expression levels were determined by western blotting. HSP90 was used as loading control. The blots are representative of at least three biological replicates.
(§2) Whole cell extracts of cultured cells were prepared in radioimmunoprecipitation (RIPA) lysis buffer supplemented with phosphatase and protease inhibitors (Calbiochem). Protein concentration was determined by the bicinchoninic acid assay (BCA) (ThermoFisher) and separated by the SDS-PAGE technique. […] Secondary anti-mouse IgG (A4416) and anti-rabbit IgG (A6667) antibodies were purchased from Sigma-Aldrich and used a 1:4000 dilution. Images of blots were acquired on HyBlot ES Autoradiography Film (Thomas Scientific, Swedesboro, NJ, USA) following incubation with SuperSignal West Pico PLUS (ThermoFisher).

Caco-2 = Caco-2 permeability assay; format: in vitro ADME
MEK7 = molecular target: T1, MEK7 (Homo sapiens, UniProt O14733); experiment: ADP-Glo kinase activity assay, MEK7; format: biochemical
T1 construct: purchased Carna Biosciences
T1 sequence (O14733 1-419): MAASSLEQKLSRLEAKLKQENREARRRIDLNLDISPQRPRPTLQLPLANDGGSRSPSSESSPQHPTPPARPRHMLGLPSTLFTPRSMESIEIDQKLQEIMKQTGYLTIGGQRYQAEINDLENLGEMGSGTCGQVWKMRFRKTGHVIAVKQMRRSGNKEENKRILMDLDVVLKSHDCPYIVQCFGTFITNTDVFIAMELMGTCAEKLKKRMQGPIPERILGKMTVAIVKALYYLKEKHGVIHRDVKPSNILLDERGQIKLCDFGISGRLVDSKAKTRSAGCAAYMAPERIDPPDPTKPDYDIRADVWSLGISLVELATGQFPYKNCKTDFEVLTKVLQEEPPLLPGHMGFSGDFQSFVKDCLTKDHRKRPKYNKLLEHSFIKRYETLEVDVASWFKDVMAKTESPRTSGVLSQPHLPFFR
Description: The compounds were then evaluated both in vitro and in a cellular system. When studying kinase inhibitors, there are a multitude of ways to evaluate selectivity across kinases.
Procedure for a 5 μL Kinase reaction using the ADP-Glo Kinase Assay Kit from Promega. Staurosporine was used as the positive control, and DMSO as the negative control. Activity of recombinant active full-length human MEK4 (Carna Biosciences) was measured using the ADP-Glo assay with recombinant full-length human p38α (MAPK14). Kinase reactions with MEK7 (Carna Biosciences) were done at the same concentration and amounts with recombinant full-length human p38α (MAPK14).
For each well, 4 ng of MEK4 and 600 ng of p38α in Kinase buffer (CST) were used, and 1 μL of this mixture was dispensed per well.
Inhibitor was prepared in a DMSO solution. A dose response dilution was done in a 384-well Echo transfer plate. […] This mixture was allowed to incubate for 30 minutes at room temperature.
Using a Mantis, 1 μL, of an 8 μM ATP solution was added to each well, and the plate was allowed to incubate for another 1 hour at room temperature. […] All experiments were done in triplicate on the plate, and at least in one separate technical duplicate.

CYP 2C9 = CYP 2C9 (Homo sapiens, UniProt P11712); experiment: CYP inhibition, 2C9
CYP 1A2 = CYP 1A2 (Homo sapiens, UniProt P05177)
CYP isoforms 3A4/5 = experiment: CYP inhibition, 3A4/5
[2] = liver microsome stability study (BioDuro-Sundia)
[3] = test system: JNK phosphorylation in CD18 cells; experiment: anisomycin-induced JNK phosphorylation, western blotting, CD18; format: cell-based, human; conditions: CD18, anisomycin 45 minutes then compound 5 hours
Description: (§3) HSP90 was used as loading control. The blots are representative of at least three biological replicates.
(§4) We also examined the effects of these inhibitors on JNK phosphorylation and proliferation of two pancreatic cancer cell lines (CD18 and MiaPaCa2).
(§5) Human pancreatic cancer cell lines (CD18/HPAF-II and MiaPaCa2) and HEK293T cells were obtained from American Type Culture Collection. All cell lines were cultured according to the manufacturer's protocol. All media contained 10% Fetal Bovine Serum (FBS) and antibiotics (100 U/mL Penicillin and 100 μg/mL Streptomycin).
as §2

CYP 2D6 = CYP 2D6 (Homo sapiens, UniProt P10635); experiment: CYP inhibition, 2D6
[4] = test system: phospho-p38 MAPK in HEK293T cells; experiment: p38 MAPK phosphorylation, western blotting, HEK293T; format: cell-based, human; conditions: anisomycin pretreatment, compound 100 μM, 5 hours
Description: as §3
(§6) We next evaluated the effects of our inhibitors on the phosphorylation activity and expression of MEK1/2, MEK3/6, and MEK7. […] We also evaluated the effects on p42/44 MAPK (ERK1/2), which functions downstream of MEK1/2.
as §2

[5] = test system: JNK phosphorylation in HEK293T cells; experiment: anisomycin-induced JNK phosphorylation, western blotting, HEK293T; format: cell-based, human; conditions: anisomycin 45 minutes then compound 5 hours, increasing doses
Description: The blots are representative of at least three biological replicates.
as §4, §5, §2

[6] = Log D study (BioDuro-Sundia); conditions: pH of 7.4
[7] = test system: phospho-p42/44 MAPK in CD18 cells; experiment: p42/44 MAPK phosphorylation, western blotting, CD18; format: cell-based, human; conditions: CD18, MEK4 inhibitor 10 μM, 5 hours
Description: as §1, §2

CYP 2C19 = CYP 2C19 (Homo sapiens, UniProt P33261); experiment: CYP inhibition, 2C19
[8] = test system: phospho-p42/44 MAPK in HEK293T cells; experiment: p42/44 MAPK (ERK1/2) phosphorylation, western blotting, HEK293T; format: cell-based, human; conditions: anisomycin pretreatment, compound 100 μM, 5 hours
Description: as §3, §6, §2

[9] = test system: JNK phosphorylation in MiaPaCa2 cells; experiment: anisomycin-induced JNK phosphorylation, western blotting, MiaPaCa2; format: cell-based, human; conditions: MiaPaCa2, anisomycin 45 minutes then compound 5 hours
Description: as §3, §4, §5, §2

HEK293T cells = experiment: cell proliferation (cell count after 72 hours), HEK293T; format: cell-based, human; conditions: varying doses
Description: After 72 hours, cells were trypsinized, counted, and the cell numbers were normalized against the DMSO treatment. Mean±SD. Graphs are representative of 3 biological replicates. One-way ANOVA; ns, non-significant **, p<0.01 ***, p<0.001.
as §4, §5

MiaPaCa2 cells = experiment: cell proliferation (cell count after 72 hours), MiaPaCa2; format: cell-based, human; conditions: MiaPaCa2, 72 hours, varying doses, single agent
Description: (§7) After 72 hours, cells were trypsinized, counted, and the cell numbers were normalized against the DMSO treatment. Mean±SD. Graphs are representative of 3 biological replicates.
as §7
(§8) Cell numbers from different treatments were normalized against the DMSO treatment, and CDI is calculated as follows: CDI=AB/(A×B), with AB being the ratio of the combination groups to control group and A or B being the ratio of the single agent group to the DMSO group. Mean±SEM from 3 biological replicates.
as §4, §5

[10] = test system: MEK7 expression in HEK293T cells; experiment: MEK7 expression, western blotting, HEK293T; format: cell-based, human; conditions: anisomycin pretreatment, compound 100 μM, 5 hours
Description: as §3, §6, §2

[11] = PAMPA assay (BioDuro-Sundia); format: in vitro ADME
CD18 cells = experiment: cell proliferation (cell count after 72 hours), CD18; format: cell-based, human; conditions: CD18, 72 hours, varying doses, single agent
Description: as §7, §7, §8, §4, §5

Cot = Cot (Homo sapiens, UniProt P41279); conditions: cited from earlier work
Cot, sequence (P41279 whole entry): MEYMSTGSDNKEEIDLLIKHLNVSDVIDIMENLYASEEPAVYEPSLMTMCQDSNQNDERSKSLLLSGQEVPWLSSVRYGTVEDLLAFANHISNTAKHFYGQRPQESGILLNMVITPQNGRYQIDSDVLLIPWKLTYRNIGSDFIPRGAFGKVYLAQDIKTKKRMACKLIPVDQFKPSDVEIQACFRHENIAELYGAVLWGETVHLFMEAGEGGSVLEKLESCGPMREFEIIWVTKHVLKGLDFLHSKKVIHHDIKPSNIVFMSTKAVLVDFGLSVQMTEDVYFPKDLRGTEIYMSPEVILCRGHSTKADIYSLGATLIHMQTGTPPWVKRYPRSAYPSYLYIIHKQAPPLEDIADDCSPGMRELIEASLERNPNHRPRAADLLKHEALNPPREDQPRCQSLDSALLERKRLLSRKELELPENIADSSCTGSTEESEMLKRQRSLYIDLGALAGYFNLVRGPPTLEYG

CYP 2C19, sequence (P33261 whole entry): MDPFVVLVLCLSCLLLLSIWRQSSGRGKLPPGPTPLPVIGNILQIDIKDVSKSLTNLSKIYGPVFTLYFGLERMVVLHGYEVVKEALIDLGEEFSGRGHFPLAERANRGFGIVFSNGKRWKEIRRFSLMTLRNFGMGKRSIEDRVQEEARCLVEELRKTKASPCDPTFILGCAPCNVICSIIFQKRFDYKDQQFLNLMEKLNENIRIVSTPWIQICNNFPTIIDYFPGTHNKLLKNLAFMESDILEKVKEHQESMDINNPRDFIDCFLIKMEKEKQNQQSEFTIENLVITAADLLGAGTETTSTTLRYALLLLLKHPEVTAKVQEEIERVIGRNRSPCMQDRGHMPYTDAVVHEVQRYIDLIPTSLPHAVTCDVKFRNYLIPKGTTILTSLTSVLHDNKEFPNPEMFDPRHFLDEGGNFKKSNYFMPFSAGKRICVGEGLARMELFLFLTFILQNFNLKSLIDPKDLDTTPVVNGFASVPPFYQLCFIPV
CYP 1A2, sequence (P05177 whole entry, canonical isoform): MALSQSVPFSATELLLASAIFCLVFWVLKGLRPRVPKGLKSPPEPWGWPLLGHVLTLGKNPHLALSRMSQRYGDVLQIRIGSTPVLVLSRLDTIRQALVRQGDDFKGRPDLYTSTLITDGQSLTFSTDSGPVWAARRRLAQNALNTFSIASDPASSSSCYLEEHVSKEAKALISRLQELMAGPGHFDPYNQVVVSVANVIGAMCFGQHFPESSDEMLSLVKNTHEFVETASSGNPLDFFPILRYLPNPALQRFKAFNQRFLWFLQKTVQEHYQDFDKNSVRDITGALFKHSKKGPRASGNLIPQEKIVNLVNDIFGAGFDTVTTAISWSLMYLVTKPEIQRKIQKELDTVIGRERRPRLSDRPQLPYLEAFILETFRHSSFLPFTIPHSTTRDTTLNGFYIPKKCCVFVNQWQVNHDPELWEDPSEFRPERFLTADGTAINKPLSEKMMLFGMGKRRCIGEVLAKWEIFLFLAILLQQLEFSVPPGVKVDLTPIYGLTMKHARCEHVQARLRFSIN
CYP 2C9, sequence (P11712 whole entry): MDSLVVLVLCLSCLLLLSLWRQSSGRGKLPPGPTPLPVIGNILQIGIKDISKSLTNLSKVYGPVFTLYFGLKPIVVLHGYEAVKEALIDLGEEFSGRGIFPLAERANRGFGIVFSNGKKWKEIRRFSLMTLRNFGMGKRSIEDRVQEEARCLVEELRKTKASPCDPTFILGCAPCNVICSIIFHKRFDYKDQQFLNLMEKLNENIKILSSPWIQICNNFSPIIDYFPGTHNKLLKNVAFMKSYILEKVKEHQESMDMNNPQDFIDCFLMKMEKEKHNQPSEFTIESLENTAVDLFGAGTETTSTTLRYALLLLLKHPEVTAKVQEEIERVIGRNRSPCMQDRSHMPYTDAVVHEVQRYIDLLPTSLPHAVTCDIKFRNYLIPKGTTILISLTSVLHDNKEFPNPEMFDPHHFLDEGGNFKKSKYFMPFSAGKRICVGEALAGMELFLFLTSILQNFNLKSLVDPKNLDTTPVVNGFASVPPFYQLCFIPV
CYP 2D6, sequence (P10635 whole entry): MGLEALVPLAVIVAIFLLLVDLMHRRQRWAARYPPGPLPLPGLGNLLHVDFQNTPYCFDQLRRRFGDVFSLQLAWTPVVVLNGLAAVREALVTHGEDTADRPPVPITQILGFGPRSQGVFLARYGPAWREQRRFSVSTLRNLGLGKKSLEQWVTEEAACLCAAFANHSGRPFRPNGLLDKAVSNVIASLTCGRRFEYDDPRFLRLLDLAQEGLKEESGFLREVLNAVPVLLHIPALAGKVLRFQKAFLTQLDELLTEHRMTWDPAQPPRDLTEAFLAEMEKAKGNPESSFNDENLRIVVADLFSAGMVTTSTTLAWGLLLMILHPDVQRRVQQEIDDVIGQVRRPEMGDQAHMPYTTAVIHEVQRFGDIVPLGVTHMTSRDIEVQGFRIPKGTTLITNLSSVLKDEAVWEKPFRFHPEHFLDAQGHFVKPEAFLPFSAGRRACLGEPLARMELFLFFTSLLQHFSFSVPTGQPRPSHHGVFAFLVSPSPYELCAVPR

NS(=O)(=O)c1ccc(-c2n[nH]c3cc(F)ccc23)cc1 [Compound 10e, 4-(6-fluoro-1H-indazol-3-yl)benzenesulfonamide]
effect on p42/44 MAPK phosphorylation [1]: did not induce p42/44 MAPK phosphorylation | Caco-2 permeability (Caco-2): medium to high permeability | IC50 (MEK7): 520 ± 670 nM | IC50 (MEK7; headline value per compound, read-out: MEK7 IC50): 540 nM | IC50 (MEK7; individual experiment, values in brackets, n=3, read-out: MEK7 IC50 of each experiment (IC50±SEM)): 560 ± 220 nM | inhibition of CYP 2C9 (CYP 2C9): avoided inhibiting | inhibition of CYP 1A2 (CYP 1A2): inhibited | inhibition of CYP isoforms 3A4/5 (CYP isoforms 3A4/5): did not inhibit | half-life in the microsome assay ([2]; liver microsome): 1.9 h | stability in the microsome assay ([2]; microsomes): good stability | effect on anisomycin-induced JNK phosphorylation [3]: attenuated anisomycin-induced JNK phosphorylation | inhibition of CYP 2D6 (CYP 2D6): avoided inhibiting | effect on anisomycin-induced p38 MAPK phosphorylation [4]: not affected | effect on anisomycin-induced JNK phosphorylation [5]: attenuated anisomycin-induced INK phosphorylation in a dose-dependent manner | log D [6]: 2.80 | effect on p42/44 MAPK phosphorylation [7]: increased p42/44 MAPK phosphorylation | inhibition of CYP 2C19 (CYP 2C19): inhibited | effect on p42/44 MAPK phosphorylation after anisomycin [8]: reversed the effects of anisomycin | effect on anisomycin-induced JNK phosphorylation [9]: attenuated anisomycin-induced JNK phosphorylation | cell proliferation (HEK293T cells): decreased. HEK293T cell proliferation in a dose-dependent manner | cell proliferation (MiaPaCa2 cells): decreased proliferation; also recorded: antiproliferative properties | effect on the expression of MEK7 [10]: no effect | permeability in the PAMPA assay [11]: performed slightly better | cell proliferation (CD18 cells): decreased proliferation; also recorded: antiproliferative properties

O=c1c(-c2ccc(O)c(O)c2)coc2cc(O)ccc12 [THIF, 7,3′,4′-trihydroxyisoflavone]
Cot activity (literature) (Cot): inhibits
